From ChEMBL document CHEMBL1141828, “Artoindonesianins A and B, two new prenylated flavones from the root of Artocarpus champeden” (J Nat Prod, 1999)
≈ marks a conversion by molar mass, not a printed value.

Test system: P388
Experiment: Cytotoxicity against mouse P388 cells by microculture tetrazolium assay
Type: functional, cell-based

SMILES | IC50 [µg/mL]
CC(C)=CCC/C(C)=C/Cc1c2c(c(O)c3c(=O)c4c(oc13)-c1c(O)cc(O)c3c1C(C4)C(C)(C)O3)C=CC(C)(C)O2 (configuration not stated) [ARTOINDONESIANIN A] | 21 (≈ 36.8 µM)
COc1cc2oc3c(c(=O)c2c(O)c1/C=C/C(C)C)CC(C(C)(C)OO)Oc1cc(O)ccc1-3 (configuration not stated) [ARTOINDONESIANIN B] | 3.9 (≈ 8.32 µM)
